Measurements taken from patent publication US9567339B2, “Primary carboxamides as BTK inhibitors” (AbbVie Inc., priority 2013, dated 2017).
Read-outs that look alike come from different tables or passages of the source.

Target: BTK, recombinant human catalytic domain (aa 393-659) (Homo sapiens (Human), UniProt Q06187)
Assay: In vitro BTK kinase activity measured by time-resolved fluorescence resonance energy transfer (trFRET)
Format: biochemical
Conditions: read-out: Btk IC50
[1] = trFRET, 0.001 mM ATP, biotin-TYR1 peptide substrate

BTK, recombinant human catalytic domain (aa 393-659), sequence (Q06187 393-659): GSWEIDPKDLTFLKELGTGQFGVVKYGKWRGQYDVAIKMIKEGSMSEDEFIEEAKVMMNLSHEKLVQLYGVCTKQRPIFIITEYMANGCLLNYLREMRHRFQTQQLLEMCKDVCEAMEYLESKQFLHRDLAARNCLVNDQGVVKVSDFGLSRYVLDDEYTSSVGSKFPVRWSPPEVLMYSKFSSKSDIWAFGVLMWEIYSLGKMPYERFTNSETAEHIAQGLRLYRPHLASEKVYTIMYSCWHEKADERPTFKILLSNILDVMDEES

Structure (SMILES) | IC50 [1] [nM] | IC50 [nM]
Cc1c(-c2ccc(C(N)=O)c3[nH]c(C4=CCN(S(C)(=O)=O)CC4)cc23)cccc1-n1cnc2ccc(F)cc2c1=O [A.4.19] | < 100 | –
CCCC(=O)NCc1ccccc1-c1cc2c(-c3cccc(NC(=O)c4nccs4)c3C)ccc(C(N)=O)c2[nH]1 [D.1.8] | 1000 to 10000 | –
C=CC(=O)Nc1cccc(-c2ccc(C(N)=O)c3[nH]c(-c4ccncc4)cc23)c1C [A.1.12] | < 100 | –
C=CC(=O)Nc1cccc(-c2ccc(C(N)=O)c3[nH]c(-c4ccc(S(C)(=O)=O)cc4)cc23)c1C [A.1.40] | < 100 | –
Cc1c(NC(=O)CCN2CCCCC2)cccc1-c1ccc(C(N)=O)c2[nH]c(C3=CCN(S(C)(=O)=O)CC3)cc12 [D.7.3] | – | 100 to 1000
C=CC(=O)Nc1cc(-c2ccc(C(N)=O)c3[nH]ccc23)ccc1OC [E.1.8] | – | 100 to 1000
C=CC(=O)Nc1cccc(-c2ccc(C(N)=O)c3[nH]c(-c4ccc(C#N)cc4)cc23)c1C [A.1.42] | < 100 | –
C/C=C/C(=O)Nc1c[nH]c2c(C(N)=O)ccc(-c3cccc(NC(=O)c4nccs4)c3C)c12 [D.3.3] | 1000 to 10000 | –
C=CC(=O)Nc1cccc(-c2ccc(C(N)=O)c3[nH]ccc23)c1 [A.5.2] | 100 to 1000 | –
C=CC(=O)Nc1cccc(-c2ccc(C(N)=O)c3[nH]c(-c4ccc(C(=O)OC)cc4)cc23)c1C [A.1.20] | < 100 | –
C=CC(=O)Nc1cccc(-c2ccc(C(N)=O)c3[nH]c(C=C)cc23)c1 [E.1.18] | – | < 100
CS(=O)(=O)N1CC=C(c2cc3c(N4CCC[C@@H](N5CCc6ccccc6C5=O)C4)ccc(C(N)=O)c3[nH]2)CC1 [Example 13, (R)-2-(1-(Methylsulfonyl)-1,2,3,6-tetrahydropyridin-4-yl)-4-(3-(1-oxo-3,4-dihydroisoquinolin-2(1H)-yl)piperidin-1-yl)-1H-indole-7-carboxamide] | < 100 | –
Cc1c(NC(=O)c2cnsc2)cccc1-c1ccc(C(N)=O)c2[nH]c(C3=CCN(S(C)(=O)=O)CC3)cc12 [D.7.38] | – | < 100
COc1ccc(C(=O)N[C@@H]2CCCN(c3ccc(C(N)=O)c4[nH]c(-c5cnn(C)c5)cc34)C2)cc1 [O.1.20*] | – | 100 to 1000
C=CC(=O)N[C@H]1CCC[C@H](c2ccc(C(N)=O)c3[nH]ccc23)C1 (relative stereo) [Example 9, 4-(trans-3-Acrylamidocyclohexyl)-1H-indole-7-carboxamide] | 100 to 1000 | –
C=CC(=O)Nc1cc(-c2ccc(C(N)=O)c3[nH]ccc23)c(F)cc1F [E.1.22] | – | < 100
C=CC(=O)N1CCO[C@@H](c2ccc(C(N)=O)c3[nH]c(-c4cnn(C)c4)cc23)C1 [E.9.24] | – | < 100
C=CC(=O)N[C@@H]1CC[C@@H](c2ccc(C(N)=O)c3[nH]ccc23)C1 [E.9.50] | – | < 100
Cc1c(-c2ccc(C(N)=O)c3[nH]c(-c4cccnc4)cc23)cccc1N1Cc2ccccc2C1=O [A.7.4] | < 100 | –
C=C(CN(C)C)C(=O)Nc1cccc(-c2ccc(C(N)=O)c3[nH]ccc23)c1 [D.6.1] | < 100 | –
C=CC(=O)N1C[C@@H]2CN(c3ccc(C(N)=O)c4[nH]ccc34)C[C@@H]21 [E.9.43] | – | 100 to 1000
N#CCNC(=O)c1cccc(-c2ccc(C(N)=O)c3[nH]ccc23)c1 [Example 15, 4-(3-((Cyanomethyl)carbamoyl)phenyl)-1H-indole-7-carboxamide] | 1000 to 10000 | –
NC(=O)c1ccc(-c2cncnc2)c2cc(-c3ccc(F)cc3)[nH]c12 [A.9.1] | 100 to 1000 | –
COC(=O)/C=C/C(=O)Nc1cccc(-c2ccc(C(N)=O)c3[nH]c(C4=CCN(S(C)(=O)=O)CC4)cc23)c1C [D.7.18] | – | < 100

Structure (SMILES) | IC50 [1] [nM] | IC50 [nM]
Cc1c(-c2ccc(C(N)=O)c3[nH]c(-c4ccc(F)cc4)cc23)cccc1N1Cc2ccc(F)cc2C1=O [A.9.6] | < 100 | –
C=CC(=O)Nc1cccc(-c2ccc(C(N)=O)c3[nH]c(-c4ccccc4)cc23)c1C [A.1.33] | < 100 | –
C=CC(=O)N(CC(C)C)c1cccc(-c2ccc(C(N)=O)c3[nH]ccc23)c1 [E.1.35, 4-(3-(N-isobutylacrylamido)phenyl)-1H-indole-7-carboxamide] | – | 100 to 1000
C=CC(=O)N1CC(N(C)c2ccc(C(N)=O)c3[nH]c(-c4cnc5c(c4)COCC5)cc23)C1 [E.9.11] | – | < 100
Cc1ccc(-c2cc3c(-c4ccncc4)ccc(C(N)=O)c3[nH]2)cc1 [A.8.4] | 100 to 1000 | –
C=CC(=O)N1CCOC[C@H](c2ncc(C(N)=O)c3[nH]ccc23)C1 [E.9.31] | – | 1000 to 10000
C=CC(=O)Nc1cccc(-c2ccc(C(N)=O)c3[nH]c(-c4c(C)noc4C)cc23)c1C [A.1.1] | 100 to 1000 | –
Cc1ccc(-c2cc3c(-c4cccs4)ccc(C(N)=O)c3[nH]2)cc1 [A.8.9] | 100 to 1000 | –
Cc1ccc(-c2cc3c(Nc4ccnn4C)ccc(C(N)=O)c3[nH]2)cc1 [Preparation #T.1, 4-(1-Methyl-1H-pyrazol-5-ylamino)-2-p-tolyl-1H-indole-7-carboxamide] | 100 to 1000 | –
COc1ccc(C(=O)N[C@@H]2CCCN(c3ccc(C(N)=O)c4[nH]ccc34)C2)cc1 [O.1.9*] | – | 1000 to 10000
Cc1c(NC(=O)c2ccc(C3CC3)cc2)cccc1-c1ccc(C(N)=O)c2[nH]c(C3=CCN(S(C)(=O)=O)CC3)cc12 [A.4.16] | < 100 | –
C=CC(=O)Nc1cccc(-c2ccc(C(N)=O)c3[nH]c(-c4cccc(C#N)c4)cc23)c1C [A.1.14] | < 100 | –
C=CC(=O)N1CCc2cc(C(N)=O)c3[nH]ccc3c21 [Example 4, 1-Acryloyl-1,2,3,6-tetrahydropyrrolo[2,3-e]indole-5-carboxamide] | 100 to 1000 | –
CC(=O)C(=O)NCc1cccc(-c2ccc(C(N)=O)c3[nH]ccc23)c1 [E.7.2] | – | 100 to 1000
Cc1c(NC(=O)/C=C/C(N)=O)cccc1-c1ccc(C(N)=O)c2[nH]c(C3=CCN(S(C)(=O)=O)CC3)cc12 [D.7.25] | – | < 100
CC(=O)N1CC=C(c2cc3c(-c4cccc(-n5cnc6ccccc6c5=O)c4C)ccc(C(N)=O)c3[nH]2)C1 [E.8.1] | – | < 100
Cc1c(NC(=O)COc2cccnc2)cccc1-c1ccc(C(N)=O)c2[nH]c(C3=CCN(S(C)(=O)=O)CC3)cc12 [D.7.14] | – | < 100
C=CC(=O)Nc1cccc(-c2ccc(C(N)=O)c3[nH]c(-c4ccc(C)nc4)cc23)c1C [A.1.24] | < 100 | –
CC(=O)N1CC=C(c2cc3c(-c4cccc(-n5cnc6ccc(F)cc6c5=O)c4C)ccc(C(N)=O)c3[nH]2)CC1 [A.3.2] | < 100 | –
C=CC(=O)N1CC(N(C)c2ccc(C(N)=O)c3[nH]c(C4CCS(=O)(=O)CC4)cc23)C1 [E.9.19] | – | < 100
CC(=O)Nc1cccc(-c2ccc(C(N)=O)c3[nH]ccc23)c1C [D.8.12] | 1000 to 10000 | –
Cc1c(-c2ccc(C(N)=O)c3[nH]c(-c4cccnc4)cc23)cccc1-n1cnc2ccccc2c1=O [A.7.2] | < 100 | –
C=CC(=O)Nc1c[nH]c2c(C(N)=O)ccc(-c3cccc(NC(=O)c4nccs4)c3C)c12 [D.3.2] | 1000 to 10000 | –
Cc1c(NC(=O)/C=C\C(N)=O)cccc1-c1ccc(C(N)=O)c2[nH]c(C3=CCN(S(C)(=O)=O)CC3)cc12 [D.7.10] | – | < 100

Structure (SMILES) | IC50 [1] [nM] | IC50 [nM]
C=CC(=O)N1CCC[C@@H](c2ccc(C(N)=O)c3[nH]ccc23)C1 [30 (S), (S)-4-(1-acryloylpiperidin-3-yl)-1H-indole-7-carboxamide] | < 100 | –
C=CC(=O)Nc1ccc(Cl)c(-c2ccc(C(N)=O)c3[nH]ccc23)c1 [E.1.24] | – | < 100
C=CC(=O)Nc1cccc(-c2ccc(C(N)=O)c3[nH]c(-c4ccnn4C4CCCCO4)cc23)c1C (stereo not drawn) [A.1.2] | < 100 | –
CS(=O)(=O)N1CC=C(c2cc3c(-c4cccc(OCc5nccs5)c4)ccc(C(N)=O)c3[nH]2)CC1 [A.4.4] | < 100 | –
C=CC(=O)N1CC(N(C)c2ccc(C(N)=O)c3[nH]ccc23)C1 [Example 24, 4-((1-Acryloylazetidin-3-yl)(methyl)amino)-1H-indole-7-carboxamide] | < 100 | –
C=CC(=O)Nc1cc(C#N)cc(-c2ccc(C(N)=O)c3[nH]ccc23)c1 [E.1.26] | – | 100 to 1000
C=CC(=O)Nc1cccc(-c2ccc(C(N)=O)c3[nH]c(-c4ccccc4OC)cc23)c1C [A.1.43] | < 100 | –
COCCNC(=O)/C=C\C(=O)Nc1cccc(-c2ccc(C(N)=O)c3[nH]ccc23)c1 [D.9.1] | 100 to 1000 | –
Cc1c(NC(=O)/C=C/CN2CCOCC2)cccc1-c1ccc(C(N)=O)c2[nH]ccc12 [J.1.5] | – | 1000 to 10000
C=CC(=O)Nc1cccc(-c2ccc(C(N)=O)c3[nH]c(-c4cccc(C(N)=O)c4)cc23)c1C [A.1.25] | < 100 | –
Cc1cc2c(N(C)C3CN(C#N)C3)ccc(C(N)=O)c2[nH]1 [J.3.1] | – | 100 to 1000
Cc1ccc(-c2cc3c(Cc4c(Cl)cccc4Cl)ccc(C(N)=O)c3[nH]2)cc1 [U.1.1] | – | 1000 to 10000
NC(=O)c1ccc(N2CCC[C@@H](NC(=O)c3ccc(C(F)(F)F)cc3)C2)c2cc[nH]c12 [O.1.8*] | – | 1000 to 10000
C=CC(=O)Nc1cccc(-c2ccc(C(N)=O)c3[nH]c(-c4ccc(OC)nc4)cc23)c1C [A.1.41] | < 100 | –
C=CC(=O)N1CC(N(C)c2ccc(C(N)=O)c3[nH]c(C4(O)COC4)cc23)C1 [E.9.22] | – | 100 to 1000
Cc1c(-c2ccc(C(N)=O)c3[nH]c(-c4cncnc4)cc23)cccc1-n1cnc2ccccc2c1=O [A.13.1] | 100 to 1000 | –
Cc1c(NC(=O)C2CCCCC2)cccc1-c1ccc(C(N)=O)c2[nH]c(C3=CCN(S(C)(=O)=O)CC3)cc12 [D.7.29] | – | < 100
C=CC(=O)Nc1cccc(-c2ccc(C(N)=O)c3[nH]c(-c4cccc(F)c4)cc23)c1C [A.1.26] | < 100 | –
C=CC(=O)Nc1cc(OCc2ccccc2)cc(-c2ccc(C(N)=O)c3[nH]ccc23)c1 [E.1.14] | – | 1000 to 10000
C=CC(=O)N1CC([C@@H](C)c2ccc(C(N)=O)c3[nH]ccc23)C1 [28 (R), (R)-4-(1-(1-acryloylazetidin-3-yl)ethyl)-1H-indole-7-carboxamide] | < 100 | –
C=CC(=O)N1CCOC[C@H](c2ccc(C(N)=O)c3[nH]ccc23)C1 [E.9.39] | – | 1000 to 10000
C=CC(=O)N1C[C@H](CO)C[C@@H](c2ccc(C(N)=O)c3[nH]ccc23)C1 [E.9.44] | – | 100 to 1000
Cc1c(NC(=O)c2ccc(C(F)F)cc2)cccc1-c1ccc(C(N)=O)c2[nH]ccc12 [O.1.1] | – | 100 to 1000
C=CC(=O)Nc1cc(OCc2ccccc2)ccc1-c1ccc(C(N)=O)c2[nH]ccc12 [E.1.17] | – | 1000 to 10000
